Results reported in PubChem BioAssay AID1918942 (Molecular Pharmacology Branch, DTP, NCI, 2023).

System: 743489-274-T-PDC complex spheroid viability
Experiment: Anticancer human tumor 743489-274-T-PDC patient-derived renal cell carcinoma cell line growth inhibition
Conditions: for IC50: curve of first compound; for viability, T/C: stronger effect = lower value
Procedure, shortened: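 Multicellular complex spheroids of tumor cells with human endothelial cells (HUVEC) and mesenchymal stem cells; the LSD1 inhibitor iadademstat was combined with standard-of-care or investigational agents. Top concentration at or near clinical Cmax, half-log dilutions; final DMSO ≤0.25%.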

[1] = second compound 0.1 µM, first compound 0.000949 µM
[2] = second compound 0.1 µM, first compound 0.003 µM
[3] = second compound 0.1 µM, first compound 0.00949 µM
[4] = second compound 0.1 µM, first compound 0.03 µM
[5] = second compound 0.1 µM, first compound 0.0949 µM
[6] = second compound 0.1 µM, first compound 0.3 µM
[7] = second compound 0.316 µM, first compound 0.000949 µM
[8] = second compound 0.316 µM, first compound 0.003 µM
[9] = second compound 0.316 µM, first compound 0.00949 µM
[10] = second compound 0.316 µM, first compound 0.03 µM
[11] = second compound 0.316 µM, first compound 0.0949 µM
[12] = second compound 0.316 µM, first compound 0.3 µM
[13] = second compound 1 µM, first compound 0.000949 µM
[14] = second compound 1 µM, first compound 0.003 µM
[15] = second compound 1 µM, first compound 0.00949 µM
[16] = second compound 1 µM, first compound 0.03 µM
[17] = second compound 1 µM, first compound 0.0949 µM
[18] = second compound 1 µM, first compound 0.3 µM
[19] = second compound 3.16 µM, first compound 0.000949 µM
[20] = second compound 3.16 µM, first compound 0.003 µM
[21] = second compound 3.16 µM, first compound 0.00949 µM
[22] = second compound 3.16 µM, first compound 0.03 µM
[23] = second compound 3.16 µM, first compound 0.0949 µM
[24] = second compound 3.16 µM, first compound 0.3 µM
[25] = second compound 10 µM, first compound 0.000949 µM
[26] = second compound 10 µM, first compound 0.003 µM
[27] = second compound 10 µM, first compound 0.00949 µM
[28] = second compound 10 µM, first compound 0.03 µM
[29] = second compound 10 µM, first compound 0.0949 µM
[30] = second compound 10 µM, first compound 0.3 µM
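Further: spheroids exposed to compounds for 7 days before readout.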
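Wherever viability, T/C is given: 100% = DMSO vehicle control wells.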

`CC[C@@]1(O)C(=O)OCc2c1cc1n(c2=O)Cc2cc3c(CN(C)C)c(O)ccc3nc2-1` + NC1CCC(NC2CC2c2ccccc2)CC1 was tested, and the IC50 (second compound 0.1 µM) was > 0.1 µM, the IC50 (second compound 0.316 µM) was > 0.1 µM and the IC50 (second compound 1 µM) was > 0.1 µM. For the same compound, the IC50 (second compound 3.16 µM) was > 0.1 µM, the IC50 (second compound 10 µM) was > 0.1 µM and the viability, T/C (second compound 0.1 µM, first compound 0.000316 µM) was 119%. The viability, T/C (second compound 0.1 µM, first compound 0.001 µM) was 103%, the viability, T/C (second compound 0.1 µM, first compound 0.00316 µM) was 116% and the viability, T/C (second compound 0.1 µM, first compound 0.01 µM) was 89.5%. The viability, T/C (second compound 0.1 µM, first compound 0.0316 µM) was 75.6%, the viability, T/C (second compound 0.1 µM, first compound 0.1 µM) was 89.9% and the viability, T/C (second compound 0.316 µM, first compound 0.000316 µM) was 107%. It also gave a viability, T/C (second compound 0.316 µM, first compound 0.001 µM) of 122%, a viability, T/C (second compound 0.316 µM, first compound 0.00316 µM) of 114% and a viability, T/C (second compound 0.316 µM, first compound 0.01 µM) of 93.3%. It also gave a viability, T/C (second compound 0.316 µM, first compound 0.0316 µM) of 96.5%, a viability, T/C (second compound 0.316 µM, first compound 0.1 µM) of 81.1% and a viability, T/C (second compound 1 µM, first compound 0.000316 µM) of 120%. For the same compound, the viability, T/C (second compound 1 µM, first compound 0.001 µM) was 122%, the viability, T/C (second compound 1 µM, first compound 0.00316 µM) was 90.3% and the viability, T/C (second compound 1 µM, first compound 0.01 µM) was 95.5%. The viability, T/C (second compound 1 µM, first compound 0.0316 µM) was 77.8%, the viability, T/C (second compound 1 µM, first compound 0.1 µM) was 81.8% and the viability, T/C (second compound 3.16 µM, first compound 0.000316 µM) was 120%. For the same compound, the viability, T/C (second compound 3.16 µM, first compound 0.001 µM) was 110%, the viability, T/C (second compound 3.16 µM, first compound 0.00316 µM) was 115% and the viability, T/C (second compound 3.16 µM, first compound 0.01 µM) was 78.2%. It also gave a viability, T/C (second compound 3.16 µM, first compound 0.0316 µM) of 87.3%, a viability, T/C (second compound 3.16 µM, first compound 0.1 µM) of 71.2% and a viability, T/C (second compound 10 µM, first compound 0.000316 µM) of 120%. The viability, T/C (second compound 10 µM, first compound 0.001 µM) was 127%, the viability, T/C (second compound 10 µM, first compound 0.00316 µM) was 101% and the viability, T/C (second compound 10 µM, first compound 0.01 µM) was 104%. It also gave a viability, T/C (second compound 10 µM, first compound 0.0316 µM) of 85.1% and a viability, T/C (second compound 10 µM, first compound 0.1 µM) of 78.9%.

`CCc1c2c(nc3ccc(O)cc13)-c1cc3c(c(=O)n1C2)COC(=O)[C@]3(O)CC` + NC1CCC(NC2CC2c2ccccc2)CC1 gave an IC50 (second compound 0.1 µM) of 0.0659 µM, an IC50 (second compound 0.316 µM) of 0.0286 µM and an IC50 (second compound 1 µM) of 0.0478 µM. For the same compound, the IC50 (second compound 3.16 µM) was 0.0221 µM, the IC50 (second compound 10 µM) was 0.215 µM and the viability, T/C [1] was 86.3%. It also gave a viability, T/C [2] of 68.7%, a viability, T/C [3] of 62.7% and a viability, T/C [4] of 43.7%. It also gave a viability, T/C [5] of 54.4%, a viability, T/C [6] of 47.8% and a viability, T/C [7] of 96.8%. For the same compound, the viability, T/C [8] was 72.7%, the viability, T/C [9] was 54.2% and the viability, T/C [10] was 46.7%. For the same compound, the viability, T/C [11] was 49.9%, the viability, T/C [12] was 51.4% and the viability, T/C [13] was 94.5%. It also gave a viability, T/C [14] of 70.6%, a viability, T/C [15] of 70% and a viability, T/C [16] of 50.4%. It also gave a viability, T/C [17] of 42.1%, a viability, T/C [18] of 44% and a viability, T/C [19] of 95.2%. It also gave a viability, T/C [20] of 92.8%, a viability, T/C [21] of 62.1% and a viability, T/C [22] of 48.2%. The viability, T/C [23] was 41.3%, the viability, T/C [24] was 44% and the viability, T/C [25] was 89.8%. It also gave a viability, T/C [26] of 79.1%, a viability, T/C [27] of 64.5% and a viability, T/C [28] of 69.4%. For the same compound, the viability, T/C [29] was 51.3% and the viability, T/C [30] was 48.5%.

`COc1cc(C2c3cc4c(cc3C(OC3OC5COC(C)OC5C(O)C3O)C3COC(=O)C23)OCO4)cc(OC)c1O` (stereo not given) + NC1CCC(NC2CC2c2ccccc2)CC1 was tested, and the IC50 (second compound 0.1 µM) was > 3 µM, the IC50 (second compound 0.316 µM) was > 3 µM and the IC50 (second compound 1 µM) was > 3 µM. For the same compound, the IC50 (second compound 3.16 µM) was > 3 µM, the IC50 (second compound 10 µM) was > 3 µM and the viability, T/C [3] was 108%. It also gave a viability, T/C [4] of 119%, a viability, T/C [5] of 112% and a viability, T/C [6] of 96.6%. The viability, T/C (second compound 0.1 µM, first compound 0.949 µM) was 106%, the viability, T/C (second compound 0.1 µM, first compound 3 µM) was 85.7% and the viability, T/C [9] was 105%. It also gave a viability, T/C [10] of 105%, a viability, T/C [11] of 97.8% and a viability, T/C [12] of 94.8%. For the same compound, the viability, T/C (second compound 0.316 µM, first compound 0.949 µM) was 91.7%, the viability, T/C (second compound 0.316 µM, first compound 3 µM) was 95.3% and the viability, T/C [15] was 118%. It also gave a viability, T/C [16] of 121%, a viability, T/C [17] of 117% and a viability, T/C [18] of 110%. It also gave a viability, T/C (second compound 1 µM, first compound 0.949 µM) of 93.2%, a viability, T/C (second compound 1 µM, first compound 3 µM) of 97.9% and a viability, T/C [21] of 125%. For the same compound, the viability, T/C [22] was 113%, the viability, T/C [23] was 115% and the viability, T/C [24] was 110%. For the same compound, the viability, T/C (second compound 3.16 µM, first compound 0.949 µM) was 99%, the viability, T/C (second compound 3.16 µM, first compound 3 µM) was 87.9% and the viability, T/C [27] was 117%. For the same compound, the viability, T/C [28] was 115%, the viability, T/C [29] was 112% and the viability, T/C [30] was 111%. It also gave a viability, T/C (second compound 10 µM, first compound 0.949 µM) of 98.6% and a viability, T/C (second compound 10 µM, first compound 3 µM) of 111%.

For `Nc1ccn(C2OC(CO)C(O)C2(F)F)c(=O)n1` (stereo not given) + NC1CCC(NC2CC2c2ccccc2)CC1, the IC50 (second compound 0.1 µM) was > 0.3 µM, the IC50 (second compound 0.316 µM) was > 0.3 µM and the IC50 (second compound 1 µM) was > 0.3 µM. For the same compound, the IC50 (second compound 3.16 µM) was > 0.3 µM, the IC50 (second compound 10 µM) was > 0.3 µM and the viability, T/C [1] was 77.8%. The viability, T/C [2] was 72.3%, the viability, T/C [3] was 71.5% and the viability, T/C [4] was 81.7%. For the same compound, the viability, T/C [5] was 68.9%, the viability, T/C [6] was 78.4% and the viability, T/C [7] was 86.3%. It also gave a viability, T/C [8] of 80%, a viability, T/C [9] of 74.6% and a viability, T/C [10] of 79.2%. It also gave a viability, T/C [11] of 73.2%, a viability, T/C [12] of 69.6% and a viability, T/C [13] of 68.5%. It also gave a viability, T/C [14] of 71.7%, a viability, T/C [15] of 74.6% and a viability, T/C [16] of 84.9%. For the same compound, the viability, T/C [17] was 76.5%, the viability, T/C [18] was 79.1% and the viability, T/C [19] was 81.5%. For the same compound, the viability, T/C [20] was 80%, the viability, T/C [21] was 85.2% and the viability, T/C [22] was 78.8%. It also gave a viability, T/C [23] of 76.4%, a viability, T/C [24] of 68.8% and a viability, T/C [25] of 91.7%. The viability, T/C [26] was 78.8%, the viability, T/C [27] was 84.8% and the viability, T/C [28] was 92.7%. It also gave a viability, T/C [29] of 74.3% and a viability, T/C [30] of 80.5%.
